The source made the active and inactive calls. No rule for the calls is given here.
Test system: rodent carcinogenicity bioassays, tumor incidence
Test: CCRIS carcinogenicity studies
Method in brief: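 NCI-built, expert-reviewed records of carcinogenicity and related test outcomes (mutagenicity, tumor promotion/inhibition) compiled from published and report sources, historical span 1985-2011, not updated.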

C1CO1
carcinogen call (Species: MOUSE, Strain/Sex: B6C3F1/FEMALE, Route: INHALATION, Dose: 0, 50, 100 PPM 6 HR/D 5 D/WK FOR 102 WK (STUDY DURATION: 105 WK), Dose: 0, 50, 100 PPM 6 HR/D 5 D/WK FOR 102 WK (STUDY DURATION: 105 WK), Tumor Site: Type of Lesion: LUNG: ALVEOLAR/BRONCHIOLAR ADENOMA, LUNG: ALVEOLAR/BRONCHIOLAR CARCINOMA, LUNG: ALVEOLAR/BRONCHIOLAR ADENOMA OR CARCINOM, Tumor Site: Type of Lesion: LUNG: ALVEOLAR/BRONCHIOLAR ADENOMA, LUNG: ALVEOLAR/BRONCHIOLAR CARCINOMA, LUNG: ALVEOLAR/BRONCHIOLAR ADENOMA OR CARCINOM): active; positive
carcinogen call (Species: MOUSE, Strain/Sex: B6C3F1/MALE, Route: INHALATION, Dose: 0, 50, 100 PPM 6 HR/D 5 D/WK FOR 102 WK (STUDY DURATION: 105 WK), Dose: 0, 50, 100 PPM 6 HR/D 5 D/WK FOR 102 WK (STUDY DURATION: 105 WK), Tumor Site: Type of Lesion: LUNG: ALVEOLAR/BRONCHIOLAR CARCINOMA, LUNG: ALVEOLAR/BRONCHIOLAR ADENOMA OR CARCINOMA, HARDERIAN GLAND: PAPILLARY CYSTAD, Tumor Site: Type of Lesion: LUNG: ALVEOLAR/BRONCHIOLAR CARCINOMA, LUNG: ALVEOLAR/BRONCHIOLAR ADENOMA OR CARCINOMA, HARDERIAN GLAND: PAPILLARY CYSTAD): active; positive
carcinogen call (Species: MOUSE, Strain/Sex: NMRI/FEMALE, Route: SUBCUTANEOUS, Dose: 0, 0.1, 0.3, 1 MG/MOUSE IN TRICAPRYLIN 1/WK FOR 95 WK (STUDY DURATION: 110 WK), Dose: 0, 0.1, 0.3, 1 MG/MOUSE IN TRICAPRYLIN 1/WK FOR 95 WK (STUDY DURATION: 110 WK), Tumor Site: Type of Lesion: INJECTION SITE: TUMOR): active; positive
carcinogen call (Species: RAT, Strain/Sex: F344/FEMALE, Route: INHALATION, Dose: 0, 10, 33, 100 PPM 6 HR/D 5 D/WK FOR STUDY DURATION (STUDY DURATION: 2 YR), Dose: 0, 10, 33, 100 PPM 6 HR/D 5 D/WK FOR STUDY DURATION (STUDY DURATION: 2 YR), Tumor Site: Type of Lesion: BRAIN: ASTROCYTOMA, MIXED GLIOMA, OLIGODENDROGLIOMA, MALIGNANT RETICULOSIS): active; positive
carcinogen call (Species: RAT, Strain/Sex: F344/FEMALE, Route: INHALATION, Dose: 0, 10, 33, 100 PPM 6 HR/D 5 D/WK FOR UP TO 2 YR (STUDY DURATION: 24 MO), Dose: 0, 10, 33, 100 PPM 6 HR/D 5 D/WK FOR UP TO 2 YR (STUDY DURATION: 24 MO)): inactive; negative
carcinogen call (Species: RAT, Strain/Sex: F344/MALE, Route: INHALATION, Dose: 0, 10, 33, 100 PPM 6 HR/D 5 D/WK FOR STUDY DURATION (STUDY DURATION: 2 YR), Dose: 0, 10, 33, 100 PPM 6 HR/D 5 D/WK FOR STUDY DURATION (STUDY DURATION: 2 YR), Tumor Site: Type of Lesion: BRAIN: GRANULAR CELL TUMOR, ASTROCYTOMA, MIXED GLIOMA, OLIGODENDROGLIOMA, MALIGNANT RETICULOSIS): active; positive
carcinogen call (Species: RAT, Strain/Sex: F344/MALE, Route: INHALATION, Dose: 0, 10, 33, 100 PPM 6 HR/D 5 D/WK FOR UP TO 2 YR (STUDY DURATION: 24 MO), Dose: 0, 10, 33, 100 PPM 6 HR/D 5 D/WK FOR UP TO 2 YR (STUDY DURATION: 24 MO), Tumor Site: Type of Lesion: BRAIN: GRANULAR CELL TUMOR OR GLIAL CELL TUMOR OR ASTROCYTOMA OR MALIGNANT RETICULOSIS): active; positive
carcinogen call (Species: RAT, Strain/Sex: F344/MALE, Route: INHALATION, Dose: 0, 50, 100 PPM 7 HR/D 5 D/WK FOR 24 MO (STUDY DURATION: LIFETIME), Dose: 0, 50, 100 PPM 7 HR/D 5 D/WK FOR 24 MO (STUDY DURATION: LIFETIME), Tumor Site: Type of Lesion: HEMATOPOIETIC SYSTEM: MONONUCLEAR CELL LEUKEMIA, PERITONEUM: MESOTHELIOMA, BRAIN: GLIOMA, Tumor Site: Type of Lesion: HEMATOPOIETIC SYSTEM: MONONUCLEAR CELL LEUKEMIA, PERITONEUM: MESOTHELIOMA, BRAIN: GLIOMA): active; positive
carcinogen call (Species: RAT, Strain/Sex: F344/MALE, Route: INHALATION, Dose: 0, 50, 100 PPM 7 HR/D 5 D/WK FOR 104 WK (STUDY DURATION: 2 YR), Dose: 0, 50, 100 PPM 7 HR/D 5 D/WK FOR 104 WK (STUDY DURATION: 2 YR), Tumor Site: Type of Lesion: BRAIN: GLIOMA (MIXED CELL), PERITONEUM: MESOTHELIOMA, PITUITARY GLAND: ADENOMA, SPLEEN: MONONUCLEAR CELL LEUKEMIA, Tumor Site: Type of Lesion: BRAIN: GLIOMA (MIXED CELL), PERITONEUM: MESOTHELIOMA, PITUITARY GLAND: ADENOMA, SPLEEN: MONONUCLEAR CELL LEUKEMIA): active; positive
carcinogen call (Species: RAT, Strain/Sex: SPRAGUE-DAWLEY/FEMALE, Route: GAVAGE, Dose: 7.5, 30 MG/KG IN SALAD OIL 2/WK FOR UP TO 150 WK, Tumor Site: Type of Lesion: FORESTOMACH: SQUAMOUS CELL CARCINOMA): active; positive

O=[N+]([O-])c1ccc2ccc3c4ccccc4ccc3c2c1
carcinogen call (Species: MOUSE, Strain/Sex: ICR/FEMALE, Route: INTRAPERITONEAL, Dose: 0, 100 NMOL (TOTAL DOSE) ADMINISTERED IN 3 SUBDOSES OF 1/7, 2/7, AND 4/7 ON DAYS 1, 8 AND 15 OF LIFE, RESPECTIVELY (STUD): inactive; negative
carcinogen call (Species: MOUSE, Strain/Sex: ICR/MALE, Route: INTRAPERITONEAL, Dose: 0, 100 NMOL (TOTAL DOSE) ADMINISTERED IN 3 SUBDOSES OF 1/7, 2/7, AND 4/7 ON DAYS 1, 8 AND 15 OF LIFE, RESPECTIVELY (STUD): inactive; negative

CCCCN(COC(C)=O)N=O
carcinogen call (Species: RAT, Strain/Sex: F344/FEMALE, Route: SUBCUTANEOUS, Dose: 6.6 MG/KG 1/WK FOR 10 WK, Tumor Site: Type of Lesion: INJECTION SITE: MALIGNANT FIBROUS HISTIOCYTOMA): active; positive
carcinogen call (Species: RAT, Strain/Sex: F344/MALE, Route: SUBCUTANEOUS, Dose: 6.6 MG/KG 1/WK FOR 10 WK, Tumor Site: Type of Lesion: INJECTION SITE: MALIGNANT FIBROUS HISTIOCYTOMA, LUNG: ADENOMA OR ADENOCARCINOMA OR SQUAMOUS CELL CARCINOMA): active; positive

Cc1cc2ccccc2c2ccc3c(c12)C=C[C@@H](O)[C@@H]3O
carcinogen call (Species: MOUSE, Strain/Sex: ICR/FEMALE, Route: INTRAPERITONEAL, Dose: 8 NMOL/5 µL DMSO ON DAY 1, 16 NMOL/10 µL ON DAY 8, AND 32 NMOL/20 µL ON DAY 15 OF AGE (STUDY DURATION: 35 WK), Tumor Site: Type of Lesion: LUNG: TUMORS): active; positive
carcinogen call (Species: MOUSE, Strain/Sex: ICR/MALE, Route: INTRAPERITONEAL, Dose: 8 NMOL/5 µL DMSO ON DAY 1, 16 NMOL/10 µL ON DAY 8, AND 32 NMOL/20 µL ON DAY 15 OF AGE (STUDY DURATION: 35 WK), Tumor Site: Type of Lesion: LUNG: TUMORS, LIVER: TUMORS): active; positive

Cc1ccnc2ccccc12
carcinogen call (Species: MOUSE, Strain/Sex: CD-1/FEMALE, Route: INTRAPERITONEAL, Dose: 0, 0.25, 0.5, 1.0 UMOL IN DMSO TO NEWBORN MICE ON DAYS 1, 8 AND 15 OF LIFE RESPECTIVELY (TOTAL DOSE: 1.75 UMOL) (STUDY D, Dose: 0, 0.25, 0.5, 1.0 UMOL IN DMSO TO NEWBORN MICE ON DAYS 1, 8 AND 15 OF LIFE RESPECTIVELY (TOTAL DOSE: 1.75 UMOL) (STUDY D): inactive; negative
carcinogen call (Species: MOUSE, Strain/Sex: CD-1/MALE, Route: INTRAPERITONEAL, Dose: 0, 0.25, 0.5, 1.0 UMOL IN DMSO TO NEWBORN MICE ON DAY 1,8 AND 15 OF LIFE RESPECTIVELY (TOTAL DOSE: 1.75 UMOL) (STUDY DUR, Dose: 0, 0.25, 0.5, 1.0 UMOL IN DMSO TO NEWBORN MICE ON DAY 1,8 AND 15 OF LIFE RESPECTIVELY (TOTAL DOSE: 1.75 UMOL) (STUDY DUR, Tumor Site: Type of Lesion: LIVER: ADENOMA, HEPATOMA): active; positive
carcinogen call (Species: RAT, Strain/Sex: SPRAGUE-DAWLEY/FEMALE, Route: SUBCUTANEOUS, Dose: 0, 200 UMOL/KG INTO SUPRASCAPULAR REGION ON DAY 1 OF LIFE FOLLOWED BY 0, 100 UMOL 1/WK AT WK 2-7 THEN 0, 200 UMOL ONCE A, Dose: 0, 200 UMOL/KG INTO SUPRASCAPULAR REGION ON DAY 1 OF LIFE FOLLOWED BY 0, 100 UMOL 1/WK AT WK 2-7 THEN 0, 200 UMOL ONCE A): inactive; negative
carcinogen call (Species: RAT, Strain/Sex: SPRAGUE-DAWLEY/MALE, Route: SUBCUTANEOUS, Dose: 0, 200 UMOL/KG INTO SUPRASCAPULAR REGION ON DAY 1 OF LIFE FOLLOWED BY 0, 100 UMOL 1/WK AT WK 2-7 THEN 0, 200 UMOL ONCE A, Dose: 0, 200 UMOL/KG INTO SUPRASCAPULAR REGION ON DAY 1 OF LIFE FOLLOWED BY 0, 100 UMOL 1/WK AT WK 2-7 THEN 0, 200 UMOL ONCE A): inactive; negative
